Common to all, as to type: cell-based
For data set [1], the target named is T1, human PepT2 (Homo sapiens, UniProt Q16348).
T1 construct: expressed in transfected cells; host or cells: murine bone marrow-derived BaF3 cells
T1 sequence (Q16348 1-729): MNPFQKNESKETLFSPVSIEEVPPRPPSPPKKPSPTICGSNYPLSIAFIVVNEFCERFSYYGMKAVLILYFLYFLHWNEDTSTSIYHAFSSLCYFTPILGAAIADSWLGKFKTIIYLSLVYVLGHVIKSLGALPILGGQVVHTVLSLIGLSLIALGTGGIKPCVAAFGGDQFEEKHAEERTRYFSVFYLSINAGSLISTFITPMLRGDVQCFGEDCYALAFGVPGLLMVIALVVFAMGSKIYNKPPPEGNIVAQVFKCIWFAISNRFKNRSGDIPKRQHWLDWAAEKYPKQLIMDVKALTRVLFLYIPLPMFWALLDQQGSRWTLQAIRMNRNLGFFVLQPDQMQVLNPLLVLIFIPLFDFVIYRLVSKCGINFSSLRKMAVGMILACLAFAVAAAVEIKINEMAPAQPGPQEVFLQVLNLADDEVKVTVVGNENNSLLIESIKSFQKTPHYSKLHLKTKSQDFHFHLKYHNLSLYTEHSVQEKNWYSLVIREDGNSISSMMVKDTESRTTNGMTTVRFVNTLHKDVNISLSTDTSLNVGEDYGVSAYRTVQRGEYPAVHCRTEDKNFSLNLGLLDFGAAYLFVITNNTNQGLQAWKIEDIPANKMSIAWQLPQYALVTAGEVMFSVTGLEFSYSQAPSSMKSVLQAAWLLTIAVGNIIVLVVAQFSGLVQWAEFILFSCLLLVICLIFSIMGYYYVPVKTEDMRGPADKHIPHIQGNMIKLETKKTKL
Briefly: [3H] glycylsarcosine uptake into BaF3/PepT2 cells. The conditions noted are these: FIG. 4. The text has this:
FIG. 4 is a graph showing the PepT2 inhibiting ability of AT-264 in BaF3/PepT2. The data are shown as an average±S.D. (n=3 to 4).
The ability of AT-264 to inhibit PepT2 was examined using a murine bone marrow-derived cell line BaF3 in which human PepT2 is forcedly expressed (hereinafter, abbreviated as BaF3/PepT2).

Data set [2] concerns human pancreatic cancer cell line BxPC-3. Kind of data set: Cell growth inhibition of BxPC-3, MTS assay after six days of culture. Here is the method: FIG. 5 is a graph showing the cell growth inhibitory effect of AT-264 against human pancreatic cancer cell line BxPC-3. The data are shown as an average±S.D. (n=6).
AT-264 was dissolved in RPMI1640-10 mM Hepes with 100 units/mL penicillin and 0.1 mg/mL streptomycin (hereinafter, abbreviated as ‘the medium’) containing 0.5% ethanol and 0.5% DMSO to prepare 2.5 mM AT-264 solution. Furthermore, this solution was diluted with the medium to prepare 0.625 mM and 0.0625 mM AT-264 solutions.
5×10^4 cells/mL solution of BxPC-3 was prepared using the medium containing 50% FBS. This suspension was seeded at 40 μL/well (2×10^3 cells) onto a 96-well plate pre-coated with Collagen type I, and 160 μL of AT-264 solution was added. This was cultured for six days in a CO2 incubator, and on the sixth day of culture, the number of viable cells was quantified by MTS assay.
On the technique in general: Tetrazolium dyes change colour on reduction, which living cells bring about.

For data set [3], the system named is human pancreatic cancer cell line AsPC-1. Kind of data set: Cell growth inhibition of AsPC-1, MTS assay after six days of culture. As for the experimental part:
FIG. 3 is a graph showing the cell growth inhibitory effect of AT-264 against human pancreatic cancer cell line AsPC-1. The data are shown as an average±S.D. (n=3 to 4).
AT-264 was dissolved in RPMI1640-10 mM Hepes (hereinafter, abbreviated as ‘the medium’) containing 0.5% ethanol and 0.5% DMSO to prepare 2.5 mM AT-264 solution. Then, this solution was diluted with the medium to prepare 0.625 mM and 0.0625 mM AT-264 solutions.
A 5×10^4 cells/mL solution of human pancreatic cancer cell line AsPC-1 was prepared using a medium containing 50% FBS. This suspension was seeded at 40 μL/well (2×10^3 cells) onto a 96-well plate pre-coated with Collagen type I, and 160 μL of the AT-264 solution was added. This was cultured for six days in a CO2 incubator (on the second day of culture, 100 units/mL penicillin and 0.1 mg/mL streptomycin were added). On the sixth day of culture, the number of viable cells was quantified by MTS assay.

For data set [4], the target named is T2, human PepT1 (Homo sapiens, UniProt P46059).
T2 sequence (P46059 1-708): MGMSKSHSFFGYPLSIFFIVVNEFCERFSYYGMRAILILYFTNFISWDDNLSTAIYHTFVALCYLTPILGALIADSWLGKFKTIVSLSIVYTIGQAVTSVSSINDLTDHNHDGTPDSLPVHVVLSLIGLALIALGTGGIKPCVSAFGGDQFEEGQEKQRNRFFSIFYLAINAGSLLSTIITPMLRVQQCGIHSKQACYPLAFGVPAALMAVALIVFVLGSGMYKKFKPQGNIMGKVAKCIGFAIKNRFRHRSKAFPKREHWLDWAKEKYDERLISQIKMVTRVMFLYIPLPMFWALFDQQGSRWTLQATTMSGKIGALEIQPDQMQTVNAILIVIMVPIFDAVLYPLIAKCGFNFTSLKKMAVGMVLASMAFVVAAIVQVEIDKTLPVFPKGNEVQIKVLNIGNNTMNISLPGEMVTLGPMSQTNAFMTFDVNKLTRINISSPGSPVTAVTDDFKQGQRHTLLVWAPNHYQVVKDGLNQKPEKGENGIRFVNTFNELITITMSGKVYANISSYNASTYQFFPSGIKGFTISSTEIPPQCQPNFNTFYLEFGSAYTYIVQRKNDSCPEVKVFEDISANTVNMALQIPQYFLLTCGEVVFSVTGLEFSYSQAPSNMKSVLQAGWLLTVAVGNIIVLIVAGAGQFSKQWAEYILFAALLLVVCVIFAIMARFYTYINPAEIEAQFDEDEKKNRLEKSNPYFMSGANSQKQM
Kind of data set: [14C] glycylsarcosine uptake into BaF3/PepT1 cells. The conditions noted are these: FIG. 2. The text has this: FIG. 2 is a graph showing the PepT1 inhibiting ability of AT-264 in BaF3 cells.
The ability of AT-264 to inhibit PepT1 was examined by forcedly expressing human PepT1 in mouse bone marrow-derived BaF3 cells (hereinafter abbreviated as BaF3/PepT1).

SMILES strings stand for the structures.

For `N=C(N)c1cccc(CC(NS(=O)(=O)NCc2cccc3ccccc23)C(=O)N2CCCCC2C(=O)O)c1` (centres unmarked) [AT-264], the “uptake of [3H] glycylsarcosine into cells” value in data set [1] is given as “inhibited in a concentration-dependent manner”. The “morphological changes under the microscope” value in data set [2] (BxPC-3 in the presence of AT-264) and in data set [3] (AsPC-1 in the presence of AT-264) was “not observed” each time. Also, in data set [2] (Homo sapiens, 144 h, BxPC-3, 0.5 mM AT-264, six days, MTS assay), the inhibition at 500 µM is approximately 20%. For the same compound, the inhibition at 2000 µM in data set [2] (Homo sapiens, 144 h, BxPC-3, 2 mM AT-264, six days, MTS assay) was approximately 75%; in data set [3] (Homo sapiens, ASPC1, 144 h, AsPC-1, 2 mM AT-264, six days, MTS assay), approximately 30%. The cell growth inhibition result in data set [3] (AsPC-1, 0.5 mM AT-264, six days, MTS assay) is on record as “slight”. The “uptake of [14C] glycylsarcosine into cells” value in data set [4] was “inhibited in a concentration-dependent manner”.

By inhibition is commonly meant the change of the read-out against control, counted positive when it falls. High values mean a response far below the control, low ones a response near the control.

The record behind these values is US7731960B2, “Antibodies that inhibit transport activity of peptide transporters” (Chugai Seiyaku Kabushiki Kaisha, priority 2003, dated 2010).
